According to patent US12060356B2, “7 (methylamino)pyrazolo[1,5-a]pyrimidine-3-carboxamide derivatives” (Eli Lilly and Company, priority 2018, dated 2024):

Assays:
[1] = molecular target: T1, pseudokinase domain (JH2) of human TYK2 (Homo sapiens, UniProt P29597); assay: TYK2-JH2 Tracer Binding Assay; conditions: His-tagged TYK2-JH2 0.200 nM, Tracer 2.00 nM, TR-FRET, 30 minutes at room temperature
T1 construct: The pseudokinase domain (JH2) of human JAK; made in house
From the text: The pseudokinase domain (JH2) of human JAK (Janus family of cytoplasmic tyrosine kinases) family tyrosine kinase 2 (TYK2) (Genbank NP_003322) with an N-terminal His6 tag is expressed in baculovirus and purified by HisPur Ni-NTA affinity and Superdex 200 size-exclusion chromatography. The compound prepared in Preparation 17, a conjugate of Alexa Fluor 647 dye (Thermo Fisher Scientific) and a suitable TYK2 JH2 binder, is referred to herein as “the Tracer”. A 3 fold, 10 point serial dilution of compound, Example 1 and Example 2, are prepared in 100% DMSO and 50 nL/well transferred to a Proxiplate-384F white plate (PerkinElmer 6008280) using acoustic liquid handling. Control wells used to determine percent inhibition contained 100% DMSO (50 nL) and either assay buffer containing the Tracer (2.00 nM final concentration) (min, low FRET) or diluted TYK2-JH2 enzyme (0.200 nM final concentration) and the Tracer (2.00 nM final concentration) (max, high FRET). […] After 30 minutes, the plate is counted on a PerkinElmer Envision with the following settings: Excitation (340 nm), Tracer Emission (665 nm) and LanthaScreen Eu-anti-His Antibody Emission (615 nm). The ratio of Tracer Emission (665 nm) over LanthaScreen Eu-anti-His Antibody Emission (615 nm) is determined.

[2] = tested on: IFNα signaling through pSTAT1 in TF1 cells; assay: Inhibition of IFNα Signaling Through pSTAT1 in TF1 Cells; assay type: cell-based; conditions: Homo sapiens, TF-1, 1 hr preincubation, 10 ng/mL IFNα2 for 20 minutes, p-Stat1 (Tyr701) AlphaLISA, GeoMetric mean (SEM, n)
Method: TF1 cells (ATCC, CL-2003) are grown in RPMI 1640 (GIBCO) supplemented with 10% dialyzed FBS, 0.1 mg/mL Ampicillin and 2 ng/mL granulocyte macrophage colony stimulating factor. TF1 cells (100 K per well) are seeded in a 96-well poly-D-lysine coated plates in serum-free DMEM and incubated overnight at 37° C. under 5% CO2. Example 1 is serially diluted in DMSO, added to the cells, and incubated at 37° C. for 1 hr. Cells are then stimulated with 10 ng/mL IFNα2 at 37° C. for 20 minutes. After removing the medium, the cells are lysed in buffer containing Halt protease and phosphatase inhibitor cocktail (Thermo Scientific #78441) at room temperature for 30 minutes. The amount of p-Stat1 (Tyr701) is quantified as light emission at 615 nm using the AlphaLISA SureFire Ultra p-Stat1 (Tyr701) assay kit (Perkin Elmer #ALSU-PST1-A50K) following the vendor's recommended protocol. Percent inhibition at each inhibitor concentration is calculated and fit to the four parameter nonlinear logistic equation using Genedata Screener® to give an IC50 for the compound of Example 1 of 0.007 μM (0.002 μM, n=4) and for the compound of Example 2 of 0.100 μM (0.014 μM, n=4) expressed as GeoMetric means with the standard error of the mean (SEM).

[3] = tested on: IL-23 signaling (STAT3 phosphorylation) in Kit225 cells; assay: IL23 pSTAT3 AlphaLISA Assay; assay type: cell-based; conditions: 1 hour preincubation, IL23 25 ng/mL for 30 minutes, GeoMetric mean (SEM, n), read-out: relative IC50
Method: IL2-dependent Kit225 cells (University of Texas MD Anderson Cancer Center) expressing endogenous IL23 receptors are stably transduced with the Lenti STAT3 Reporter linked to firefly luciferase (SABiosciences CLS-6028L). These cells are used to monitor TYK2 activity by quantifying gene expression caused by STAT3 phosporylation following induction by IL23 in the presence of IL2 using AlphaLISA technology (TGR Biosciences ALSU-TST3-A50K). The cells are grown in RPMI 1640 (Gibco 22400) supplemented with 10% FBS (Invitrogen 10082), 1× Pen/Strep (Gibco 15140-122), 200 ng/ml Puromycin (Sigma P9620), and fresh 10 ng/ml recombinant human IL2 (R&D Systems 202-IL-50).
For assay preparation, cells are dispensed into Biocoat black poly-d-lysine coated clear bottom 384-well plates (Becton Dickinson Bio-Coat 35-4640) in DMEM (Sigma D5796) at 300,000 cells/well and allowed to incubate overnight at 37° C. Compounds solubilized in DMSO are serially diluted 1:3 to produce a 10-point concentration response curve (final DMSO=0.1%). Cells are pre-incubated with Example 1 for 1 hour at 37° C., then stimulated with IL23 (25 ng/mL final) for 30 minutes. […] The AlphaLISA reaction is performed following the vendor's recommended protocol, and the […] are measured using an Envision plate reader (Perkin Elmer).

T1 sequence (P29597 589-875 limits assumed): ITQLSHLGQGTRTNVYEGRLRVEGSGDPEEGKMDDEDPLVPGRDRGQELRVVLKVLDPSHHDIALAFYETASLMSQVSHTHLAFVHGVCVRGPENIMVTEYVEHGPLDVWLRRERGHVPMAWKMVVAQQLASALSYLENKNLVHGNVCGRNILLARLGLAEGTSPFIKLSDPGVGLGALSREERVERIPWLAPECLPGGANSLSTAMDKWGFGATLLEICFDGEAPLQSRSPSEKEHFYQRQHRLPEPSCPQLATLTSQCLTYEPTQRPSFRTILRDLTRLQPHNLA

IC50 [1] [nM] | IC50 [2] [nM] | IC50 [3] [nM] | Structure (SMILES)
< 0.254 | 7 | 7 | CNc1cc(Nc2cccc3c2OCCC3)nc2c(C(=O)N[C@@H]3CCN(C)C3=O)cnn12 [Example 1, 5-(Chroman-8-ylamino)-7-(methylamino)-N-[(3R)-1-methyl-2-oxo-pyrrolidin-3-yl]pyrazolo[1,5-a]pyrimidine-3-carboxamide]
< 0.254 | 100 | 66 | CNc1cc(Nc2cccc(C)n2)nc2c(C(=O)N[C@@H]3CCN(C)C3=O)cnn12 [Example 2, 7-(Methylamino)-N-[(3R)-1-methyl-2-oxo-pyrrolidin-3-yl]-5-[(6-methyl-2-pyridyl)amino]pyrazolo[1,5-a]pyrimidine-3-carboxamide]
